Test system: Hara cells derived from human lung cancer
Assay: Bone metastasis model: Hara cells transplanted into the heart of nude mice, preventive effect of OCT
Type: in vivo
Description: Preventive effects of OCT on bone metastases were studied using a bone metastasis model prepared with Hara cells derived from human lung cancer.
A test of preventive effects of OCT on bone metastases of Hara cells was started on the 20th day after 5×10^5 Hara cells were transplanted into the heart of nude mice, at which time the body weight of the animals began to slightly decrease but neither rise in Ca nor clear bone metastasis image on soft X-rays was observed. On that day, the animals were grouped by body weight, and a vehicle (n=9) or 1 μg/kg of OCT (n=9) was orally administered to each animal 4 to 5 times per week for six weeks (29 times in total). At different instants during the administration period, the body weight and Ca level in blood were measured and soft X-ray photographs were taken.

[1] = after 15 doses on the 22nd day after starting the test, 1 μg/kg OCT orally, n=9
[2] = after 20 doses on the 29th day after starting the test, 1 μg/kg OCT orally, n=9
[3] = first day of the test, 1 μg/kg OCT orally, n=9

C=C1/C(=C\C=C2/CCC[C@@]3(C)C2CC[C@@H]3[C@H](C)OCCC(C)(C)O)C[C@@H](O)C[C@@H]1O (stereo partly drawn) [OCT, 22-oxa-1α, 25-dihydroxyvitamin D3]
effect on rise in Ca level in blood (1 μg/kg OCT orally vs vehicle group): tendency to suppress the rise in Ca level in blood | death (1 μg/kg OCT orally, n=9, in the vehicle group four animals died by the 42nd day): no death was observed | effect on body weight decrease (29th day, 1 μg/kg OCT orally vs vehicle group, p<0.05): significantly suppressed body weight decrease | Ca level in blood [1]: 1.37 ± 0.04 mM | body weight [1]: 24.51 ± 1.27 g | Ca level in blood [2]: 1.34 ± 0.16 mM | body weight [2]: 25.00 ± 1.20 g | bone metastasis image on soft X-ray photographs (during the administration period (six weeks), 1 μg/kg OCT orally, n=9, vehicle group: four animals in total): no bone metastasis image was observed | Ca level in blood [3]: 1.32 ± 0.04 mM | body weight [3]: 23.61 ± 1.57 g

— patent US6869940B2, “Malignant tumor metastasis inhibitors” (Chugai Seiyaku Kabushiki Kaisha, priority 1995, dated 2005)
